Source: US12281304B2, “Compositions and methods for treating and preventing muscular disorders and dystrophies, steroid side effects, and inflammation” (Children's National Medical Center, priority 2018, dated 2025)

Tested on: miRNAs in diaphragm muscle of mdx mice
Assay: TaqMan low-density array (TLDA) miRNA profiling of diaphragm, discovery set (prophylactic mdx trial)
Type: in vivo, mouse
Conditions: mdx diaphragm, vs untreated mdx; Pred 5 mg/kg, Vam 15 mg/kg
Description: Archival muscle samples (diaphragm) from two separate preclinical studies were obtained, with each trial showing a significant benefit from both prednisolone and vamorolone drug treatments (23). Prednisolone was used because it is the active form of prednisone, the current DMD standard of care. The first, “discovery set” of diaphragm muscles was from a prophylactic trial design where 2-week old (postnatal day 15) mdx or wild type control mice received oral dosing for 6 weeks with vehicle (cherry syrup), prednisolone (5 mg/kg), or vamorolone (15 mg/kg) as previously reported (23). The second, “validation set” of diaphragm muscles was from an extended trial in older mice where mdx or wild type mice were subjected to treadmill running to unmask mild phenotypes. Mice in this validation set were treated with either vehicle, prednisolone (5 mg/kg) or vamorolone (45 mg/kg) for four months beginning at two months of age (23). At the endpoint of each trial, diaphragm muscles were harvested and frozen in liquid nitrogen-cooled isopentane.
We extracted total RNA from 5 diaphragm muscles per treatment group in the discovery set of samples from 8-week old mice. RNA was extracted using a modified TRIzol protocol with isopropanol precipitation at −20° C. overnight. This RNA was reverse transcribed to cDNA using a High Capacity cDNA Reverse Transcription Kit with RNase Inhibitor (ThermoFisher; Carlsbad, Calif.), with miRNA-specific Megaplex RT Primers, Rodent Pools Set version 3.0 (ThermoFisher; Carlsbad, Calif.). Levels of each of the miRNAs were profiled in the discovery set using TAQMAN Array Rodent MiRNA A+B Cards Set v3.0 (ThermoFisher; Carlsbad, Calif.).
In the discovery set experiments, levels of each miRNA were quantified in TaqMan low-density arrays using ThermoFisher Cloud software with the Relative Quantification Application (ThermoFisher; Carlsbad, Calif.) tool. Data was analyzed by ANOVA with post-hoc comparison of each group to the mdx vehicle-treated group. […] A P-value of P≤0.05 was set as the significance threshold, without adjustment for multiple comparisons. To reduce false-positive discovery in this setting, an evidence-based approach was used to identify efficacy associated miRNAs where 1) results from the multiple groups were cross-referenced, and 2) all candidate miRNAs identified in this discovery set were then assayed in a separate validation set of mice. For the validation set experiments, levels of each individual miRNA were assayed in samples from a second, independent preclinical trial in adult mdx mice. Data from individual TaqMan Assays was quantified using QuantStudio Real-Time PCR version 1.3 software (Applied Biosystems; Foster City, Calif.). The levels of all miRNAs were normalized to the geometric mean of multiple control genes (60, 70). Comparison of groups was made by ANOVA with Holm-Sidak post-hoc test comparing each group to mdx vehicle.
To visualize behavior of miRNAs within individual mice for each group, heat map images were generated. Heat maps were generated using Rq values of TLDA array data exported from the Relative Quantification Application of the ThermoFisher Cloud software (ThermoFisher; Carlsbad, Calif.) tool. Heat maps of miRNA expression were produced using Hierarchical Clustering Explorer Version 3.5 (at www.cs.umd.edu/hcil/multi-cluster/) produced by the Human Computer Interaction Laboratory (University of Maryland; College Park, Md.).
To examine miRNA expression TaqMan low density qPCR array cards were used to profile approximately 750 miRNAs within diaphragm muscle from a discovery set of mice. Samples for this experiment came from a trial that utilized a prophylactic approach (23). Briefly, mdx mice undergo a stage of peak severity characterized by widespread inflammation and necrosis from approximately 3-8 weeks of age, followed by a recovery stage where mice show milder phenotypes (25). […]

C[C@@H]1C[C@H]2[C@@H]3CCC4=CC(=O)C=C[C@]4(C)C3=CC[C@]2(C)[C@@]1(O)C(=O)CO [vamorolone]
Rq mmu-miR-215-001200: 0.495
Rq mmu-miR-218-000521: 0.759
Rq mmu-miR-221-000524: 0.674
Rq mmu-miR-222-002276: 0.733
Rq mmu-miR-223-002295: 0.78
Rq mmu-miR-296-5p-000527: 0.882
Rq mmu-miR-301a-000528: 0.77
Rq mmu-miR-301b-002600: 0.917
Rq mmu-miR-322-001076: 0.785
Rq mmu-miR-324-3p-002509: 0.748
Rq mmu-miR-324-5p-000539: 0.946
Rq mmu-miR-328-000543: 0.858
Rq mmu-miR-335-3p-002185: 1.249
Rq mmu-miR-335-5p-000546: 0.76
Rq mmu-miR-337-3p-002532: 1.078
Rq mmu-miR-338-3p-002252: 0.689
Rq mmu-miR-339-5p-002257: 0.929
Rq mmu-miR-340-3p-002259: 0.75
Rq mmu-miR-340-5p-002258: 0.726
Rq mmu-miR-342-3p-002260: 0.677
Rq mmu-miR-342-5p-002527: 0.644
Rq mmu-miR-345-5p-002528: 0.808
Rq mmu-miR-350-002530: 0.797
Rq mmu-miR-362-3p-002616: 0.902
Rq mmu-miR-362-5p-002614: 1.469
Rq mmu-miR-369-3p-000557: 0.963
Rq mmu-miR-369-5p-001021: 1.023
Rq mmu-miR-370-002275: 1.146
Rq mmu-miR-376a#-002482: 0.985
Rq mmu-miR-376a-001069: 0.991
Rq mmu-miR-376b#-002451: 0.717
Rq mmu-miR-376b-002452: 1.153
Rq mmu-miR-376c-002450: 0.931
Rq mmu-miR-379-001138: 0.987
Rq mmu-miR-380-5p-002601: 1.243
Rq mmu-miR-381-000571: 1.288
Rq mmu-miR-382-000572: 1.081
Rq mmu-miR-383-001767: 0.272
Rq mmu-miR-384-5p-002602: 0.727
Rq mmu-miR-409-3p-002332: 1.266
Rq mmu-miR-410-001274: 1.158
Rq mmu-miR-411-001610: 1.083
Rq mmu-miR-431-001979: 1.358
Rq mmu-miR-433-001028: 1.407
Rq mmu-miR-434-5p-002581: 1.208
Rq mmu-miR-450a-5p-002303: 0.862
Rq mmu-miR-455-002455: 0.607
Rq mmu-miR-467F-002886: 0.581
Rq mmu-miR-467a-002587: 0.763
Rq mmu-miR-467c-002517: 0.844
Rq mmu-miR-483#-002560: 1.386
Rq mmu-miR-486-001278: 0.988
Rq mmu-miR-487b-001285: 1.133
Rq mmu-miR-489-001302: 0.942
Rq mmu-miR-491-001630: 0.842
Rq mmu-miR-493-002519: 1.057
Rq mmu-miR-494-002365: 0.988
Rq mmu-miR-495-001663: 0.897
Rq mmu-miR-497-001346: 0.652
Rq mmu-miR-500-002606: 0.878
Rq mmu-miR-501-3p-001651: 1.158
Rq mmu-miR-503-002456: 1.115
Rq mmu-miR-511-002549: 0.477
Rq mmu-miR-532-3p-002355: 1.069
Rq mmu-miR-532-5p-001518: 1.043
Rq mmu-miR-540-3p-001310: 0.746
Rq mmu-miR-541-002562: 1.043
Rq mmu-miR-542-3p-001284: 0.82
Rq mmu-miR-542-5p-002563: 1.044
Rq mmu-miR-543-001298: 1.176
Rq mmu-miR-543-002376: 0.918
Rq mmu-miR-544-002550: 0.952
Rq mmu-miR-574-3p-002349: 0.692
Rq mmu-miR-652-002352: 0.636
Rq mmu-miR-665-002607: 1.203
Rq mmu-miR-669a-001683: 0.551
Rq mmu-miR-673-3p-002449: 1.148
Rq mmu-miR-673-001954: 1.475
Rq mmu-miR-674#-001956: 0.765
Rq mmu-miR-674-002021: 0.892
Rq mmu-miR-675-3p-001941: 1.14
Rq mmu-miR-682-001666: 0.675
Rq mmu-miR-690-001677: 0.861
Rq mmu-miR-706-001641: 0.664
Rq mmu-miR-708-002341: 0.51
Rq mmu-miR-720-001629: 0.957
Rq mmu-miR-802-002029: 0.126
Rq mmu-miR-805-002045: 1.128
Rq mmu-miR-1274a-121150_mat: 1.244
Rq mmu-miR-1941-3p-121130_mat: 1.459
Rq mmu-miR-1943-121174_mat: 1.268
Rq mmu-miR-1944-121189_mat: 1.023
Rq mmu-miR-2146-241082_mat: 0.413
Rq mmu-miR-30d-000420: 0.829
Rq rno-miR-1-002064: 0.956
Rq rno-miR-7#-001338: 0.799
Rq rno-miR-7a#-002062: 0.887
Rq rno-miR-20b-001326: 0.711
Rq rno-miR-29c#-001818: 0.93
Rq rno-miR-204#-002076: 0.813
Rq rno-miR-224-000599: 0.837
Rq rno-miR-345-3p-002061: 0.999
Rq rno-miR-351-002063: 1.376
Rq rno-miR-379#-002081: 1.014
Rq rno-miR-381-001322: 1.013
Rq rno-miR-489-001353: 0.844
Rq rno-miR-664-001323: 0.771
